Results reported in ChEMBL document CHEMBL5634145, “Discovery of novel amidobenzimidazole derivatives as orally available small molecule modulators of stimulator of interferon genes for cancer immunotherapy” (Eur J Med Chem, 2023).

Columns and labels:
[1] = biological target: Stimulator of interferon genes protein (Homo sapiens, UniProt Q86WV6); experiment: Agonist activity at STING in wild type human THP1-Dual cells assessed as increase in IRF-mediated immune response incubated for 24 hrs by QUANTI-Luc assay; type: cell-based
Sequence of Stimulator of interferon genes protein (Q86WV6 whole entry): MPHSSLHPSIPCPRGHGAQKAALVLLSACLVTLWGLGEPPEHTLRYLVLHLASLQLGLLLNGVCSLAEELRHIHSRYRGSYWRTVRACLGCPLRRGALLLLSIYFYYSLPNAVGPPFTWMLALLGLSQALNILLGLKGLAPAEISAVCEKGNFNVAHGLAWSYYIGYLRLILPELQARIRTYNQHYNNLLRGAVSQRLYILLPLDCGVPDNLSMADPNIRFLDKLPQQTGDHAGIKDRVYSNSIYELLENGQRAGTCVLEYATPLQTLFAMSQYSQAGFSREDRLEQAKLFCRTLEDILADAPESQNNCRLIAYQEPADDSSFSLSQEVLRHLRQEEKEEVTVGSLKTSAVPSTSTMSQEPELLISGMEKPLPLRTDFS

[2] = Cytotoxicity against wild type human THP1-Dual cells assessed as cell viability incubated for 24 hrs by CellTiter 96 aqueous one solution assay relative to control; type: toxicity, cell-based; parameters: concentration or dose not given beside the values; settings: read-out: Activity
[3] = Cytotoxicity against human THP1-Dual KO-STING cells assessed as cell viability incubated for 24 hrs by CellTiter 96 aqueous one solution assay relative to control; type: toxicity, cell-based; parameters: concentration or dose not given beside the values; settings: read-out: Activity
[4] = Agonist activity at STING (unknown origin)

EC50 [1]	EC50 [4]	Compound	viability at 24 h [2]	viability at 24 h [3]
9.2 µM		CCn1nc(C)cc1C(=O)Nc1nc2cc(C(N)=O)ccc2n1CCCCn1c(NC(=O)c2cc(C)nn2CC)nc2cc(C(N)=O)ccc21	101%	117%
		Nc1nc2c(ncn2[C@@H]2O[C@@H]3COP(=O)(O)O[C@H]4[C@@H](O)[C@H](n5cnc6c(N)ncnc65)O[C@@H]4COP(=O)(O)O[C@H]3[C@H]2O)c(=O)[nH]1	87%	97.2%
	102 µM	CCn1nc(C)cc1C(=O)/N=c1\[nH]c2cc(C(N)=O)ccc2n1C[C@@H](O)c1ccccc1		
19.6 µM		CCn1nc(C)cc1C(=O)Nc1nc2cc(C(N)=O)ccc2n1CCCCNC(=O)OC(C)(C)C	69%	105%
		CC(C)(C)OC(=O)NCCCCn1c(NC(=O)c2ccc(F)nc2)nc2cc(C(N)=O)ccc21	102%	107%
		CCc1ncccc1C(=O)Nc1nc2cc(C(N)=O)ccc2n1CCCCNC(=O)OC(C)(C)C	89.2%	94.7%
		Cc1ncccc1C(=O)Nc1nc2cc(C(N)=O)ccc2n1CCCCNC(=O)c1ccccc1	101%	93.8%
		Cc1ncccc1C(=O)Nc1nc2cc(C(N)=O)ccc2n1CCCCCN	110%	99.3%
		CC(C)(C)OC(=O)NCCCCn1c(NC(=O)c2cccnc2F)nc2cc(C(N)=O)ccc21	107%	108%
		COc1cc(C(N)=O)cc2nc(NC(=O)c3ccc(C(F)(F)F)nc3C)n(C/C=C/CNC(=O)OC(C)(C)C)c12	87.5%	107%
		CC(C)(C)OC(=O)NCCCCn1c(NC(=O)c2ccncc2)nc2cc(C(N)=O)ccc21	86.9%	90.6%
		Cc1ccncc1C(=O)Nc1nc2cc(C(N)=O)ccc2n1CCCCNC(=O)OC(C)(C)C	88.5%	87.8%
		CC(C)(C)OC(=O)NCCCCn1c(NC(=O)c2cccnc2Cl)nc2cc(C(N)=O)ccc21	105%	100%
		Cc1ncccc1C(=O)Nc1nc2cc(C(N)=O)ccc2n1CCCCCNC(=O)OC(C)(C)C	92.2%	92%
29.7 µM		Cc1nc(C(F)(F)F)ccc1C(=O)Nc1nc2cc(C(N)=O)ccc2n1CCCCNC(=O)OC(C)(C)C	106%	97.5%
		CC(C)(C)OC(=O)NCCCCn1c(NC(=O)c2cccnc2C(F)(F)F)nc2cc(C(N)=O)ccc21	108%	102%
